Data published in patent US20210017569A1, “Ligase Screening Assay” (UNIVERSITY OF DUNDEE, priority 2018, published 2021).

Experiments:
Type in all cases: biochemical
[1] = target: T1, GST-MYCBP2 (Homo sapiens, UniProt O75592); assay: Multiple turnover amino acid and peptide panel discharge assays; settings: for function as proxy substrate (hydroxy probe) of MYCBP2: tested herein as proxy substrates; for discharge activity / Ub modification in amino acid panel: amino acid nucleophile, UBE2D3~Ub, MYCBP2cat
T1 construct: GST-tagged MYCBP2cat (Ser4378-Phe4640), wt and mutants, were expressed at 16° C. overnight; made in house; host or cells: E. coli BL21-DE3
T1 sequence (O75592 4416-4678 limits assumed): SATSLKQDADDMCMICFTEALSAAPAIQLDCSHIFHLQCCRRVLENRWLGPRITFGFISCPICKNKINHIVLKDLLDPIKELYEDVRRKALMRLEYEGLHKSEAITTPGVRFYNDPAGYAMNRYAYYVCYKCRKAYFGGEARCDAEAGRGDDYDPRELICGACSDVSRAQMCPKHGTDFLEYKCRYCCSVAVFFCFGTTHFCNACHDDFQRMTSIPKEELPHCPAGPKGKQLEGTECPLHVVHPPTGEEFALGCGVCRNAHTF
Method: Stock solutions (0.5 M) of amino acids were dissolved in MQ water and pH was adjusted to pH ˜8. Peptides of the sequence Ac-EGXGN-NH2 (X=K, S or T) were obtained from Bio-Synthesis Inc. Stock peptide solutions (200 mM) were dissolved in MQ water and pH was adjusted to pH ˜8. An E2 (UBE2D3) charging reaction was carried out in buffer (40 mM Na2HPO4—HCl pH 8.0, 150 mM NaCl, 0.5 mM TCEP) containing UBE1 (250-500 nM), UBE2D3 (20 μM), Ub (50 μM), or Cy3B-Ub (25 μM), MgCl2 (5 mM) and ATP 10 (mM). The reaction was incubated at 37° C. for 15 minutes and then equilibrated to 23° C. for 3 minutes. An equivalent volume of nucleophile sample containing small molecule/peptide nucleophile (100 mM) and GST-MYCBP2 (10 μM) was then added and incubated at 23° C. Samples were taken at the specified time points and analyzed as described for Tris/glycerol-mediated E2 discharge assay.
Cy3B-Ub was visualized using a Chemidoc Gel Imaging System (Biorad). LC-MS was carried out as described for Tris/glycerol discharge but amino acid substrate samples were quenched by the addition of 2:1 parts quenching solution (75% acetonitrile, 2% TFA) and peptide substrate samples were quenched by addition of 1:1 parts quenching solution.

[2] = target: T2, MYCBP2 (Homo sapiens, UniProt O75592); assay: Tris/glycerol-mediated E2 discharge assay with LC-MS analysis; settings: Tris 50 mM and glycerol ~65 mM in assay buffer
T2 construct: GST-tagged MYCBP2cat (Ser4378-Phe4640), wt and mutants, were expressed at 16° C. overnight; GST (N); made in house; host or cells: E. coli BL21-DE3
T2 sequence (O75592 4416-4678 limits assumed): T1 sequence (O75592 4416-4678 limits assumed)
Method: Assays were carried out in buffer (50 mM Tris-HCl pH 7.5, 150 mM NaCl, 0.5 mM TCEP, 5 mM MgCl2) containing the indicated MYCBP2 mutant (15 μM), UBE1 (1.5 μM), UBE2D3 (15 μM), Ub (37 μM) and ATP (10 mM). The reactions were incubated at 37° C. for 30 minutes. Reactions were terminated by the addition of 4×LDS loading buffer (with and without ˜680 mM 2-mercaptoethanol). A C4572S sample was further incubated with 0.14 N NaOH at 37° C. for 20 minutes and samples were resolved by SDS-PAGE (4-12% NuPage gel) and visualized by Coomassie staining.
Reactions were prepared as described for discharge assay. After 30 minutes, the reaction was analyzed using an Agilent 1200/6130 LC-MS system (Agilent Technologies) using a 10-75% gradient over 20 minutes (buffer A=H2O+0.05% TFA, buffer B=acetonitrile+0.04% TFA).

[3] = target: T3, MYCBP2cat (Homo sapiens, UniProt O75592); assay: NMNAT2 ubiquitination assay; settings: base lability and thiol resistance test
T3 construct: GST-tagged MYCBP2cat (Ser4378-Phe4640), wt and mutants, were expressed at 16° C. overnight; GST (N, cleaved yes); made in house; host or cells: E. coli BL21-DE3
T3 sequence (O75592 4416-4678 limits assumed): T1 sequence (O75592 4416-4678 limits assumed)
Method: NMNAT2 (5 μM) was mixed with E1 (500 nM), UBE2D3 (10 μM), MYCBP2cat (10 μM), Ub (50 μM), ATP (10 mM) and made up with 10×pH 7.5 buffer (40 mM Na2H2PO4 pH 7.5, 150 mM NaCl, 5 mM MgCl2, 0.5 mM TCEP). The reactions were incubated at 37° C. for 1 hour and terminated by the addition of 4×LDS loading buffer (either non-reducing or reducing). For base lability test, reactions were supplemented with 0.14 N NaOH and then further incubated at 37° C. for 20 minutes.

[4] = target: T4, GST-MYCBP2cat (Homo sapiens, UniProt O75592); assay: Multiple turnover E2 discharge panel (threonine discharge); settings: 17 E2s tested
T4 construct: GST-tagged MYCBP2cat (Ser4378-Phe4640), wt and mutants, were expressed at 16° C. overnight; made in house; host or cells: E. coli BL21-DE3
T4 sequence (O75592 4416-4678 limits assumed): T1 sequence (O75592 4416-4678 limits assumed)
Method: E2s were screened for threonine discharge activity with GST-MYCBP2cat as described for the amino acid panel. E2s were also incubated in the presence of threonine but in the absence of GST-MYCBP2cat. These samples provided a reference to distinguish between intrinsic E2˜Ub instability and E3-dependent discharge.

Molecule: N[C@@H](CO)C(=O)O [serine]
- function as proxy substrate (hydroxy probe) of MYCBP2 [1]: functional

Molecule: OCC(O)CO [glycerol]
- function as proxy substrate (hydroxy probe) of MYCBP2 [1]: functional
- conversion of Ub into condensation product with nucleophile [2]: quantitatively converted

Molecule: NMNAT2: Nicotinamide Mononucleotide Adenyltransferase, putative MYCBP2 substrate
- ubiquitination by MYCBP2cat in vitro [3]: hydroxide labile but thiol resistant ubiquitination

Molecule: O=S(=O)(O)CCN1CCN(CCO)CC1 [HEPES, 4-(2-hydroxyethyl)-1-piperazineethanesulfonic acid]
- function as proxy substrate (hydroxy probe) of MYCBP2 [1]: functional

Molecule: NCCCC[C@H](N)C(=O)O [lysine]
- discharge activity / Ub modification in amino acid panel [1]: low level

Molecule: C[C@@H](O)[C@H](N)C(=O)O [threonine]
- discharge activity / Ub modification in amino acid panel [1]: strikingly enhanced
- selectivity for threonine over serine ([1]; amino acid substrates, MS-based quantification of Ub esterification): ~10 fold
- Threonine selectivity in a peptide context ([1]; peptides Ac-EGXGN-NH2 (X=K, S or T)): 3 fold
- function as proxy substrate (hydroxy probe) of MYCBP2 [1]: functional

Molecule: UBE2D3: E2 conjugating enzyme, N-terminally 6His-tagged recombinant protein
- E2 partner activity with MYCBP2cat [4]: robust activity

Molecule: tris(hydroxymethyl)aminomethane
- function as proxy substrate (hydroxy probe) of MYCBP2 [1]: functional
- conversion of Ub into condensation product with nucleophile [2]: quantitatively converted

Molecule: UBE2D1: E2 conjugating enzyme
- E2 partner activity with MYCBP2cat [4]: robust activity
